Data from US12421257B2, “Compositions and methods for inhibiting group II intron RNA” (YALE UNIVERSITY, priority 2018, dated 2025).
In brackets after ≈: the same amount, converted by molar mass.

Columns and labels:
HEK-293T cells = assay: Cytotoxicity in HEK-293T cells (Cell Titer Glo); format: cell-based, human; details: Homo sapiens, cytotoxicity, 24 hours with compound, read-out: IC50 HEK-293
Experimental: HEK-293T cells were cultured in Dulbecco's Modified Eagle's Medium (DMEM) (Gibco) supplemented with 10% Fetal Bovine Serum (FBS, Gibco) and 100 U/ml of Penicillin-Streptomycin (Gibco) at 37° C. and 5% CO2. For the cytotoxicity experiments, cells were aliquoted into black 96-well plates with a clear bottom (Corning 3603) at a concentration of 10,000 cells per well. The cells were grown at 37° C., 5% CO2 for 5-6 hours, then the medium was replaced with the same medium without FBS and cells were grown at 37° C., 5% CO2 for 24 hours. Freshly prepared stock solutions of test compounds (12.8 mg/ml in DMSO) were serially diluted 1:2 with DMSO into the first 11 successive wells of a 12-well row on a 96-well plate as described above. Well 12 was used as a growth control (no compound). […] After incubation, cell viability was determined using the luminescent Cell Titer Glo cell viability assay (Promega), in which 100 μl of the assay reagent was added to each well of the assay plate. After gentle shaking for 7-10 minutes, the plates were analyzed on a Synergy H1 plate reader (BioTek). Luminescence was plotted against the compound concentration and IC50 values were determined by fitting the data to a 4-parameter logistic function c+(d−c)/(1+(x/a)^b), where a is the IC50, b is the slope parameter, c is the minimum response and d is the maximum response. Experiments were replicated to ensure reproducibility.

C. parapsilosis = assay: MIC determination against C. parapsilosis; format: cell-based, Candida parapsilosis; details: RPMI-1640, 35° C. or 37° C., turbidity after 24 and 48 hours; for MIC: Lodderomyces parapsilosis
Experimental: Minimal inhibitory concentrations (MICs) for C. parapsilosis were determined in a final volume of 100 μl. Fresh stock solutions of control antifungal drugs (Amphotericin B and Itraconazole) and of test compounds were prepared at 3.2 mg/ml and at 12.8 mg/ml respectively in DMSO. After placing the stock in the first well, solutions of test compounds and antifungal controls were serially diluted 1:2 with DMSO into the first […] successive wells of a 12-well row on a 96-well plate (as described above). After dilution, 2.5 μl from each of these 10 wells were transferred onto a separate 96-well plate and diluted with 122.5 μl of RPMI-1640 medium (Sigma). Wells 11 and 12 contained 2.5 μl DMSO and 122.5 μl of RPMI-1640 as a positive growth control (no compound) and sterility control (no inoculum added). A 50 μl volume was taken from each of the RPMI dilutions (wells 1-12) and transferred to the wells of a third 96-well plate (assay plate), where they were mixed with an equal volume (50 μl) of freshly prepared inoculum of C. parapsilosis in RPMI-1640 medium, set at a density to provide the 0.5×10^3 to 2.5×10^3 colony forming units per 1 mL (except for the sterility control). Sterility control was mixed with 50 μl of sterile medium.
The final concentration range of the assay was 0.25-128 μg/ml for test compounds and 0.0625-32 μg/ml for Amphotericin B and Itraconazole. The final concentration of DMSO was 1%. The assay plate was incubated at 35° C. or 37° C. and visually analyzed for turbidity after 24 and 48 hours of incubation. The lowest compound concentration at which no growth was apparent is reported as the MIC. All experiments were performed in triplicate.

[1] = test system: ai5γ group II intron (D135 ribozyme); assay: Fluorescent D135 ribozyme cleavage assay (IC50); format: biochemical, Saccharomyces cerevisiae; details: for IC50: D135 ribozyme cleavage of substrate 17/2 DL, 100 mM MgCl2, 500 mM KCl, 37° C., 10 minutes; for In vitro inhibitory activity, SAR statement (in words): relative to parent scaffold
Experimental: The D135 ribozyme (Su et al., 2005, Nucleic Acids Res, 33:6674-6687), fluorescently labeled oligo substrate 17/2 DL (FIG. 1A-FIG. 1D) (both at 20 nM final concentrations in 50 mM MOPS, pH 7.0, 100 mM MgCl2, 0.5M KCl), and the test compounds (final concentration of 10 μM in 50 mM MOPS, pH 7.0, 100 mM MgCl2, 0.5M KCl) were aliquoted onto black non-binding 384-well plates (Corning 3757) using the multidrop combi (ThermoFisherScientific) and pintool (V & P Scientific). The reaction mixtures were incubated at 37° C. for 45 minutes, then the reaction was quenched with 100 mM EDTA and fluorescence intensity was analyzed on a Tecan Infinite multimode plate reader (λex 520 nm, λem 560 nm, 5 nm bandwidth). Data were normalized to untreated wells and wells lacking the D135 ribozyme, and percent of inhibition was calculated using ActivityBase (IDBS). The Z′-factor was calculated as described (Zhang et al., 1999, J Biomol Screen, 4:67-73): Z′=1−3×(σp+σn)/|μp−μn|, • where μp and σn are mean value and standard deviation for the positive control (substrate only), and where μn and σn are mean value and standard deviation for the negative control (no compound). The average Z′-factor from the screen was 0.83±0.03. IC50 Measurement for the Small Molecule Inhibition of the D135 Ribozyme Cleavage Reaction.
Black 96-well plates (Corning 3695) were filled with 50 μl of solution containing 20 nM D135 ribozyme, 20 nM double-labeled substrate 17/2 DL and small molecule inhibitor in 50 mM MOPS, pH 7.0, 100 mM MgCl2 and 500 mM KCl. Small molecule inhibitors were tested at 19 different concentrations ranging from 5 nM to 1 mM. Plates were incubated at 37° C. for 10 minutes, then reaction mixtures were quenched with 100 mM EDTA and analyzed on the Synergy H1 plate reader (BioTek). Each experiment was performed in triplicate. Data were fit to a 4-parameter logistic function c+(d−c)/(1+(x/a)^b), where a is the IC50, b is the slope parameter, c is the minimum response and d is the maximum response. Data are reported as average±s.e.m

ai5γ group II intron = assay: Radioanalytic self-splicing assay of SE RNA (Ki); format: biochemical, Saccharomyces cerevisiae; details: 8 mM MgCl2, 100 mM KCl, pH 7.5, 30° C.
Experimental: Internally labeled SE RNA (2 nM) was incubated with various concentrations of inhibitor compound under near-physiological conditions (in 50 mM MOPS, pH 7.5, 8 mM MgCl2, 100 mM KCl) at 30° C. Aliquots at different time points were quenched and analyzed on 5% denaturing polyacrylamide gel as previously described (Daniels et al., 1996, Journal of molecular biology, 256:31-49). Data were fit to a single-exponential equation to determine the first order rate constants (kobs). The latter were then plotted against the concentration of the inhibitor and fit to the equation for non-competitive inhibition to determine Ki values: kobs=kmax/(1+[I]/Ki), where kobs and kmax are the first order rate constants measured in the presence and in the absence of the inhibitor, respectively, [I] is the concentration of the inhibitor and Ki is the inhibition constant. Experiments were performed four times for API-014, three times for APY-090, Intronistat A, and Intronistat B and twice for the remaining compounds to ensure reproducibility. Data represent average±s.e.m.

S. cerevisiae = assay: Yeast respiration assay in S. cerevisiae (MIC in YPD / YPGE); format: cell-based, Saccharomyces cerevisiae; details: 30° C.
Experimental: Yeast respiration assays were conducted either in liquid YPD media (BD Bacto Yeast Extract, BD Bacto Peptone, 2% glucose) or in YPGE media (BD Bacto Yeast Extract, BD Bacto Peptone, 3% glycerol, 3% ethanol), essentially as described for the antifungal MIC assays (see below). To initiate these experiments, 100 μl of a fresh stock solution was prepared for each compound (3.2 mg/ml for Amphotericin B and 12.8 mg/ml for each test compounds) in DMSO. This concentrated stock solution was placed in the first well of 12-well row on a 96-well plate. The subsequent nine wells in this row contained 50 μl of DMSO for serial dilution. From the first well, 50 μl of the compound stock was withdrawn, transferred to the second well and mixed. This process was repeated from the second and subsequent wells, resulting in a 1:2 serial dilution of the stock into DMSO. Wells 11 and 12 contained DMSO only, to be used as no compound control and sterility control, with no inoculum added, respectively. After preparing this plate, 2.5 μl from each of the 12 wells was transferred to the wells of a separate 96-well plate, each of which contained 122.5 μl of YPD or YPGE medium, resulting in a set of serial dilutions of compound into growth media in a volume of 125 μl. Then 50 μl from each of these dilutions were transferred onto a third 96-well plate (the assay plate) and mixed with an equal volume (50 μl) of freshly prepared yeast inoculum in YPD or YPGE medium set to provide 0.5×10^3 to 2.5×10^3 colony forming units per 1 mL (wells 1-11), or YPD/YPGE alone (sterility control, well 12). The final compound concentration range of the assay was 0.25-128 μg/ml for test compounds and 0.0625-32 μg/ml for Amphotericin B. The final concentration of DMSO was 1%. Plates were incubated at 30° C. and visually analyzed for turbidity after 24 and 48 hours of incubation. The lowest compound concentration at which no growth was apparent is reported as the MIC (Table 1). All experiments were performed in triplicate.

SMILES	IC50 (HEK-293T cells)	MIC (C. parapsilosis)	IC50 [1]	Ki (ai5γ group II intron)	In vitro inhibitory activity, SAR statement (in words) [1]	MIC C. parapsilosis (C. parapsilosis)	MIC in YPD (glucose) (S. cerevisiae; YPD medium)	MIC in YPGE (glycerol) (S. cerevisiae; YPGE medium)
O=C(CCc1ccc2ccccc2c1)c1cc(O)c(O)c(O)c1 [APY-076]	7 µg/mL	16 µg/mL (≈ 51.9 µM)	8 µM	5.4 µM				
COc1ccc(CNC(=O)c2cc(O)c(O)c(O)c2)cc1OC [APY-077, N-[(3,4-Dimethoxyphenyl)methyl]-3,4,5-trihydroxybenzamide]	> 32 µg/mL	64 µg/mL (≈ 200 µM)	30 ± 4 µM	44 ± 11 µM	substantial loss of activity			
COc1ccc(CCNC(=O)c2cc(O)c(O)c(O)c2)cc1OC [APY-078]	> 128 µg/mL	64 µg/mL (≈ 192 µM)	27 µM	16 µM				
C[C@H](NC(=O)c1cc(O)c(O)c(O)c1)c1cccc2ccccc12 [APY-079]	4.6 µg/mL	32 µg/mL (≈ 99 µM)	20 µM	32 µM				
O=C(c1cc(O)c(O)c(O)c1)c1cc2cc(Cl)cc(Cl)c2o1 [APY-083, 5-[(5,7-Dichloro-1-benzofuran-2-yl)carbonyl]benzene-1,2,3-triol]	0.5 ± 0.1 µg/mL	8 µg/mL (≈ 23.6 µM)	3.3 ± 0.3 µM	0.9 ± 0.1 µM	without significant loss of function			
CCN(CC)C(=O)c1ccc(-c2ccc3oc(C(=O)c4cc(O)c(O)c(O)c4)cc3c2)cc1 [APY-091, N,N-Diethyl-4-{2-[(3,4,5-trihydroxyphenyl)carbonyl]-1-benzofuran-5-yl}benzamide]	5.35 ± 0.05 µg/mL	8 µg/mL (≈ 18 µM)	2.4 ± 0.4 µM	4.5 ± 0.9 µM				
O=C(c1cc(O)c(O)c(O)c1)c1cc2cc(-c3ccc(C(F)(F)F)nc3)ccc2o1 [APY-097, 5-({5-[6-(Trifluoromethyl)pyridin-3-yl]-1-benzofuran-2-yl}carbonyl)benzene-1,2,3-triol]	5.4 ± 0.6 µg/mL	8 µg/mL (≈ 19.3 µM)	2.8 ± 0.2 µM	3.9 ± 0.5 µM				
O=C(c1cc2cc(-c3ccc(CO)cc3)ccc2o1)c1ccc(B(O)O)cc1F [APY-098, [3-Fluoro-4-({5-[4-(hydroxymethyl)phenyl]-1-benzofuran-2-yl}carbonyl)phenyl]boronic acid]	11 ± 3 µg/mL	> 128 µg/mL	> 1000 µM	> 1000 µM	nearly complete loss of activity			
C[C@@H]1[C@H](O)[C@@H](C)/C=C/C=C/C=C/C=C/C=C/C=C/C=C/[C@H](O[C@@H]2O[C@H](C)[C@@H](O)[C@H](N)[C@@H]2O)C[C@@H]2O[C@](O)(C[C@@H](O)C[C@@H](O)[C@H](O)CC[C@@H](O)C[C@@H](O)CC(=O)O[C@H]1C)C[C@H](O)[C@H]2C(=O)O [Amphotericin B, reference compound]						0.5 to 1 µg/mL	2 µg/mL (≈ 2.16 µM)	16 µg/mL (≈ 17.3 µM)
COc1cccc(/C=N/NC(=O)c2cc(O)c(O)c(O)c2)c1O [Compound 2]	34 µg/mL	32 µg/mL (≈ 101 µM)	7.3 µM	8 µM				
CN(C)CCNC(=O)c1ccc2oc(C(=O)c3cc(O)c(O)c(O)c3)cc2c1 [NED-2018, N-(2-(dimethylamino)ethyl)-2-(3,4,5-trihydroxybenzoyl)-benzofuran-5-carboxamide]	> 128 µg/mL	16 µg/mL (≈ 41.6 µM)	9 ± 4 µM	0.62 ± 0.03 µM				
CCN(CC)CCNC(=O)c1ccc2oc(C(=O)c3cc(O)c(O)c(O)c3)cc2c1 [NED-2019, N-(2-(diethylamino)ethyl)-2-(3,4,5-trihydroxybenzoyl)-benzofuran-5-carboxamide]	> 64 µg/mL	8 µg/mL (≈ 19.4 µM)	4.8 ± 0.5 µM	0.49 ± 0.03 µM				
O=C(N/N=C/c1ccc(-c2ccc(Br)cc2)o1)c1cc(O)c(O)c(O)c1 [NED-2038, (E)-N′-((5-(4-bromophenyl)furan-2-yl)methylene)-3,4,5-trihydroxybenzohydrazide]	1.1 µg/mL	32 µg/mL (≈ 76.7 µM)	2.7 ± 0.5 µM	1.7 µM				
